pIC50: −log10 of the molar value. Active and inactive are the calls of the source. No cut-off for these calls is given here.
Legend:
Pyruvate kinase PKM [1] = target: T1, Pyruvate kinase PKM (Homo sapiens, UniProt P14618); assay: Inhibition of human PKM2 assessed as ATP production incubated for 10 mins by Celltiter-glo luminescent analysis
Target sequence in this assay (P14618 whole entry): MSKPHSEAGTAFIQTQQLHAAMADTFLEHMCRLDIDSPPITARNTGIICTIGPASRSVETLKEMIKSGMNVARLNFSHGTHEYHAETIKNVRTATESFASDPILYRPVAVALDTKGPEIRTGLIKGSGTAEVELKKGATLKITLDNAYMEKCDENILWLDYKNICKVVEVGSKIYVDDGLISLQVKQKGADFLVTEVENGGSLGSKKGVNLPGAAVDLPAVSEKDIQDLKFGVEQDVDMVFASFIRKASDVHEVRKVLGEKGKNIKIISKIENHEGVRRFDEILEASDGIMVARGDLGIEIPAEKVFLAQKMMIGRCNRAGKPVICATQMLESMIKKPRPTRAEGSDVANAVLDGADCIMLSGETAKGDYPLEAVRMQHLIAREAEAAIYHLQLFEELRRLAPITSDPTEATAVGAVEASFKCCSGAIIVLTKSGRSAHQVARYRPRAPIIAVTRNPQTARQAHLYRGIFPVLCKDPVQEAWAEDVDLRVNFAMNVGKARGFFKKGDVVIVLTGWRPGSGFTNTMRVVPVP

Pyruvate kinase PKM [2] = target: T1, Pyruvate kinase PKM; assay: Inhibition of human PKM2 assessed as ATP production incubated for 10 mins in presence of beta-mercaptoethanol by Celltiter-glo luminescent analysis
Target sequence in this assay (P14618 whole entry): as above

PA-1 [3] = assay: Antiproliferative activity against human PA-1 cells assessed as reduction in cell viability incubated for 72 hrs by Cell-TiterGlo assay; format: functional, cell-based; conditions: PA-1, 72 h
A2780 = assay: Antiproliferative activity against human A2780 cells assessed as reduction in cell viability incubated for 72 hrs by Cell-TiterGlo assay; format: functional, cell-based; conditions: A2780, 72 h
SK-OV-3 [4] = assay: Antiproliferative activity against human SK-OV-3 cells assessed as reduction in cell viability incubated for 72 hrs by Cell-TiterGlo assay; format: functional, cell-based; conditions: SK-OV-3, 72 h
PA-1 [5] = assay: Antiproliferative activity against human PKM2 knockdown PA-1 cells assessed as reduction in cell viability incubated after 96 hrs by Cell-TiterGlo assay; format: functional, cell-based
SK-OV-3 [6] = assay: Antiproliferative activity against human PKM2 knockdown SK-OV-3 cells assessed as reduction in cell viability incubated after 96 hrs by Cell-TiterGlo assay; format: functional, cell-based
Pyruvate kinase PKM [7] = target: T1, Pyruvate kinase PKM; assay: Binding affinity to PKM2 in human PA-1 cells assessed as thermal stabilization at 2 uM measured for 6 hrs by cellular thermal shift assay; format: cell-based
Target sequence in this assay (P14618 2-531 limits assumed): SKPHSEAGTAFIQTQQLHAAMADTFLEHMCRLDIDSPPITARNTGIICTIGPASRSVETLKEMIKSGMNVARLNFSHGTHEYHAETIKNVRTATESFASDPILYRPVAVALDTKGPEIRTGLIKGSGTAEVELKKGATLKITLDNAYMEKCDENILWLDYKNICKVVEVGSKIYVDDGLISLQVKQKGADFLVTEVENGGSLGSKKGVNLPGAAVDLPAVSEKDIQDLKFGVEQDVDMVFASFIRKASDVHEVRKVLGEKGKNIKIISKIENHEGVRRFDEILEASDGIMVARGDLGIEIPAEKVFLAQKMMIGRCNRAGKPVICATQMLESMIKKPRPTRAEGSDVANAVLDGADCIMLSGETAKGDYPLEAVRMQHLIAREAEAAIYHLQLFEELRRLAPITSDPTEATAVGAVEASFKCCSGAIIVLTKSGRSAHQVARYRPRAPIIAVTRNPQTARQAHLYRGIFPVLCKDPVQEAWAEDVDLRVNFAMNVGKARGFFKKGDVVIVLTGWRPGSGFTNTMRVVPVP

Pyruvate kinase PKM [8] = target: T1, Pyruvate kinase PKM; assay: Binding affinity to PKM2 in human SK-OV-3 cells assessed as thermal stabilization at 2 uM measured for 6 hrs by cellular thermal shift assay; format: cell-based
Target sequence in this assay (P14618 2-531 limits assumed): as above

HEY [9] = assay: Antitumor activity against human HEY cells xenografted in BALB/c nude mouse model assessed as reduction of tumor burden at 50 mg/kg, po qd; format: functional, organism-based
HEY [10] = assay: Antitumor activity against human HEY cells xenografted in BALB/c nude mouse model assessed as reduction in total tumor weight by measuring fold change at 50 mg/kg, po qd; format: functional
HEY [11] = assay: Antitumor activity against human HEY cells xenografted in BALB/c nude mouse model assessed as reduction average tumor volume by measuring fold change at 50 mg/kg, po qd by caliper analysis; format: functional
[12] = Toxicity in BALB/c mouse assessed as change in body weight at 50 mg/kg, po qd measured after 2 weeks; format: organism-based; conditions: in vivo, 336 h
[13] = Toxicity in BALB/c mouse assessed as adverse effects at 50 mg/kg, po qd measured after 2 weeks; format: organism-based; conditions: in vivo, 336 h
Pyruvate kinase PKM [14] = target: T1, Pyruvate kinase PKM; assay: Binding affinity to wild type FLAG-tagged PKM2 in human PA-1 cells measured for 72 hrs; format: cell-based
Target sequence in this assay (P14618 whole entry): as the sequence (P14618 whole entry) above

Pyruvate kinase PKM [15] = target: Pyruvate kinase PKM (Homo sapiens, UniProt P14618, C474A); assay: Binding affinity to PKM2 C474A mutant in human PA-1 cells measured for 72 hrs; format: cell-based
Sequence of Pyruvate kinase PKM (Homo sapiens, UniProt P14618, C474A) (P14618 2-531 C474A limits assumed): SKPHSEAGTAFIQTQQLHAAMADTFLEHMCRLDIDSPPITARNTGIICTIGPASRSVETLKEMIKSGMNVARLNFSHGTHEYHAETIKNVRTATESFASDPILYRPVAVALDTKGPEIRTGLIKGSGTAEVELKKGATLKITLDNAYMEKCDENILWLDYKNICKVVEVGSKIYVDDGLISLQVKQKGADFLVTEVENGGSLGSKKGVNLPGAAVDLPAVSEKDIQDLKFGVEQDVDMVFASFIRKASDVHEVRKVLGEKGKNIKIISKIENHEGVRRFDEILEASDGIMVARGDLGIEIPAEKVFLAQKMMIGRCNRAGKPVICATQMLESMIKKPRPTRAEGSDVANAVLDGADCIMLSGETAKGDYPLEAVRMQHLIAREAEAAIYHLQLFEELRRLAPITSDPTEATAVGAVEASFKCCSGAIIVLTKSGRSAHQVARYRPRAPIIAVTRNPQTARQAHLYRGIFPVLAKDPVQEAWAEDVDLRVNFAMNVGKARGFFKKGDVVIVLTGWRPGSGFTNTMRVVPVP

Pyruvate kinase PKM [16] = target: Pyruvate kinase PKM (Homo sapiens, UniProt P14618, C474S); assay: Binding affinity to PKM2 C474S mutant in human PA-1 cells measured for 72 hrs; format: cell-based
Sequence of Pyruvate kinase PKM (Homo sapiens, UniProt P14618, C474S) (P14618 2-531 C474S limits assumed): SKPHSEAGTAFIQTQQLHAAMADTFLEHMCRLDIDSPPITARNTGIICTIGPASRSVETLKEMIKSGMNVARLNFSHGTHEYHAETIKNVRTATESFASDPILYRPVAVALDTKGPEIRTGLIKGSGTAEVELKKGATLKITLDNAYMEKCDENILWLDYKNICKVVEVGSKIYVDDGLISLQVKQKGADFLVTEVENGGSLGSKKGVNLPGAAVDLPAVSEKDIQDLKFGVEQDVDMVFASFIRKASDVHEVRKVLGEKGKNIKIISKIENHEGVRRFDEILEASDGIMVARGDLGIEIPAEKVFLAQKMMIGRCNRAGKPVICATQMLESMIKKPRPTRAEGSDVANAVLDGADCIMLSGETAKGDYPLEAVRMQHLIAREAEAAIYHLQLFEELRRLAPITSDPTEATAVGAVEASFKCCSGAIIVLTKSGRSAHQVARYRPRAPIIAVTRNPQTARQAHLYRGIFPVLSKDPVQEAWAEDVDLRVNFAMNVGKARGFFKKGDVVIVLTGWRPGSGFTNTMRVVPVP

Pyruvate kinase PKM [17] = target: T1, Pyruvate kinase PKM; assay: Inhibition of PKM2 in human PA-1 cells assessed as increase in extracellular acidification rate at 1 to 5 uM measured for 12 hrs by Seahorse XF96 extracellular flux analyzer; format: cell-based; conditions: dose 1-5 µM
Target sequence in this assay (P14618 2-531 limits assumed): as the sequence (P14618 2-531 limits assumed) above

Pyruvate kinase PKM [18] = target: T1, Pyruvate kinase PKM; assay: Inhibition of PKM2 in human SK-OV-3 cells assessed as decrease in extracellular acidification rate at 5 uM measured for 12 hrs by Seahorse XF96 extracellular flux analyzer; format: cell-based
Target sequence in this assay (P14618 2-531 limits assumed): as above

Pyruvate kinase PKM [19] = target: T1, Pyruvate kinase PKM; assay: Inhibition of PKM2 in human PA-1 cells assessed as reduction pyruvate level at 5 uM measured for 12 hrs by LC-MS analysis; format: cell-based
Target sequence in this assay (P14618 2-531 limits assumed): as above

Pyruvate kinase PKM [20] = target: T1, Pyruvate kinase PKM; assay: Inhibition of PKM2 in human PA-1 cells assessed as increase in ADP/ATP ratio at 5 uM measured for 12 hrs by LC-MS analysis; format: cell-based
Target sequence in this assay (P14618 2-531 limits assumed): as above

Pyruvate kinase PKM [21] = target: T1, Pyruvate kinase PKM; assay: Inhibition of PKM2 in human PA-1 cells assessed as reduction in LDH level at 5 uM measured after 3 hrs by Western blot analysis; format: cell-based
Pyruvate kinase PKM [22] = target: T1, Pyruvate kinase PKM; assay: Inhibition of PKM2 in human PA-1 cells assessed as reduction in c-MYC phosphorylation level at 3 uM incubated for 6 to 12 hrs by Western blotting analysis; format: cell-based; conditions: time 6-12 hrs
Pyruvate kinase PKM [23] = target: T1, Pyruvate kinase PKM; assay: Inhibition of PKM2 in human PA-1 cells assessed as reduction in cyclin D1 phosphorylation level at 3 uM incubated for 6 to 12 hrs by Western blotting analysis; format: cell-based; conditions: time 6-12 hrs
Pyruvate kinase PKM [24] = target: T1, Pyruvate kinase PKM; assay: Inhibition of PKM2 in human PA-1 cells assessed as effect on STAT3 phosphorylation level at 3 uM incubated for 6 to 12 hrs by Western blotting analysis; format: cell-based; conditions: time 6-12 hrs
Pyruvate kinase PKM [25] = target: T1, Pyruvate kinase PKM; assay: Inhibition of PKM2 in human PA-1 cells assessed as effect on AKT phosphorylation level at 3 uM incubated for 6 to 12 hrs by Western blotting analysis; format: cell-based; conditions: time 6-12 hrs
Pyruvate kinase PKM [26] = target: T1, Pyruvate kinase PKM; assay: Inhibition of PKM2 in human PA-1 cells assessed as effect on ERK1/2 phosphorylation level at 3 uM incubated for 6 to 12 hrs by Western blotting analysis; format: cell-based; conditions: time 6-12 hrs
SK-OV-3 [27] = assay: Inhibition of PKM2 knockdown in human SK-OV-3 cells assessed as AMPK phosphorylation level at 3 uM incubated for 6 to 12 hrs by Western blotting analysis; format: functional, cell-based; conditions: time 6-12 hrs
SK-OV-3 [28] = assay: Inhibition of PKM2 knockdown in human SK-OV-3 cells assessed as c-MYC phosphorylation level at 3 uM incubated for 6 to 12 hrs by Western blotting analysis; format: functional, cell-based; conditions: time 6-12 hrs
Pyruvate kinase PKM [29] = target: T1, Pyruvate kinase PKM; assay: Binding affinity to human PKM1 in HEK-293T by measuring pulldown using streptavidin agarose resin preincubated for 18 hrs followed by streptavidin pulldown for 18 hrs by silver staining based immunoblotting analysis; format: cell-based; conditions: time 36.0 hrs
Pyruvate kinase PKM [30] = target: T1, Pyruvate kinase PKM; assay: Binding affinity to PKM2 in human PA-1 cells at 10 uM pretreated for 6 hrs followed by pulldown using streptavidin agarose resin by Western blot analysis; format: cell-based
Pyruvate kinase PKM [31] = target: T1, Pyruvate kinase PKM; assay: Binding affinity to PKM2 in human SK-OV-3 cells at 10 uM pretreated for 6 hrs followed by pulldown using streptavidin agarose resin by Western blot analysis; format: cell-based
Pyruvate kinase PKM [32] = target: T1, Pyruvate kinase PKM; assay: Binding affinity to PKM2 in human HeLa cells assessed as nuclear translocation at 0.5 uM measured for 24 hrs by DAPI staining based immunofluorescence analysis; format: cell-based
Pyruvate kinase PKM [33] = target: T1, Pyruvate kinase PKM; assay: Binding affinity to PKM2 in human PA-1 cells assessed as target engagement of protein at 10 uM silver staining based […] gel electrophoresis analysis; format: cell-based
Pyruvate kinase PKM [34] = target: T1, Pyruvate kinase PKM; assay: Inhibition of human PKM1 assessed as ATP production incubated for 10 mins by Celltiter-glo luminescent analysis
Target sequence in this assay (P14618 whole entry): as the sequence (P14618 whole entry) above

Pyruvate kinase PKM [35] = target: T1, Pyruvate kinase PKM; assay: Binding affinity to human PKM2 in HEK-293T by measuring pulldown using streptavidin agarose resin preincubated for 18 hrs followed by streptavidin pulldown for 18 hrs by silver staining based immunoblotting analysis; format: cell-based; conditions: time 36.0 hrs

SMILES: CCN1CCC(CN(C(=O)[C@@H]2CCN(Cc3ccccc3)C2)c2ccc([As]3SCCS3)cc2)CC1
- pIC50 (Pyruvate kinase PKM [1]): < 5.00
- pIC50 (Pyruvate kinase PKM [2]): < 5.00
- pIC50 (PA-1 [3]): 6.80
- pIC50 (A2780): 6.64
- pIC50 (SK-OV-3 [4]): < 5.00
- Activity (PA-1 [5]): inactive
- Activity (SK-OV-3 [6]): Active
- Activity (Pyruvate kinase PKM [7]): inactive
- Activity (Pyruvate kinase PKM [8]): inactive
- Activity (HEY [9]): Active
- fold change (FC) (HEY [10]): >3
- fold change (FC) (HEY [11]): 2
- Activity [12]: Non-Toxic
- Activity [13]: Non-Toxic
- pIC50 (Pyruvate kinase PKM [14]): 7.80
- pIC50 (Pyruvate kinase PKM [15]): 6.89
- pIC50 (Pyruvate kinase PKM [16]): 7.03
- inhibition (Pyruvate kinase PKM [17]): inactive
- inhibition (Pyruvate kinase PKM [18]): Active
- inhibition (Pyruvate kinase PKM [19]): Active
- inhibition (Pyruvate kinase PKM [20]): Active
- inhibition (Pyruvate kinase PKM [21]): inactive
- inhibition (Pyruvate kinase PKM [22]): Active
- inhibition (Pyruvate kinase PKM [23]): Active
- inhibition (Pyruvate kinase PKM [24]): inactive
- inhibition (Pyruvate kinase PKM [25]): inactive
- inhibition (Pyruvate kinase PKM [26]): inactive
- inhibition (SK-OV-3 [27]): Active
- inhibition (SK-OV-3 [28]): inactive

SMILES: O=C(CCCC[C@H]1SC[C@H]2NC(=O)N[C@H]21)NCCOCCOCCOCCOCC(=O)Nc1ccc(B(O)O)cc1
- pIC50 (Pyruvate kinase PKM [1]): < 5.00
- pIC50 (Pyruvate kinase PKM [2]): < 5.00

SMILES: CN1CC[C@@H](C(=O)Nc2ccc([As](O)O)cc2)C1
- pIC50 (Pyruvate kinase PKM [1]): 6.86
- pIC50 (Pyruvate kinase PKM [2]): 6.23
- pIC50 (PA-1 [3]): 6.32
- pIC50 (A2780): 6.47
- pIC50 (SK-OV-3 [4]): 6.55

SMILES: CCN1CCC(CN(C(=O)[C@H]2CCN(Cc3ccccc3)C2)c2ccc([As]3SCCS3)cc2)CC1
- pIC50 (PA-1 [3]): 7.00
- pIC50 (A2780): 6.96
- pIC50 (SK-OV-3 [4]): 6.89

SMILES: COc1ccc([As](O)O)cc1NC(=O)COCCOCCOCCOCCNC(=O)CCCC[C@H]1SC[C@H]2NC(=O)N[C@H]21
- pIC50 (Pyruvate kinase PKM [1]): 6.00
- pIC50 (Pyruvate kinase PKM [2]): 5.89

SMILES: O=C(CCCC[C@H]1SC[C@H]2NC(=O)N[C@H]21)NCCOCCOCCOCCN1CCC(CN(C(=O)[C@@H]2CCN(Cc3ccccc3)C2)c2ccc([As]3SCCS3)cc2)CC1
- Activity (Pyruvate kinase PKM [29]): inactive
- Activity (Pyruvate kinase PKM [30]): inactive
- Activity (Pyruvate kinase PKM [31]): inactive

SMILES: CCN1CCC(CN(C(=O)[C@@H]2CCN(Cc3ccccc3)C2)c2ccc(B(O)O)cc2)CC1
- pIC50 (Pyruvate kinase PKM [1]): < 5.00
- pIC50 (Pyruvate kinase PKM [2]): < 5.00
- pIC50 (PA-1 [3]): < 5.00
- pIC50 (A2780): < 5.00
- pIC50 (SK-OV-3 [4]): < 5.00

SMILES: CC1=CC(C)=[N+]2C1=C(CCCC(=O)N1CCC(CN(C(=O)[C@@H]3CCN(Cc4ccccc4)C3)c3ccc([As]4SCCS4)cc3)CC1)c1c(C)cc(C)n1[B-]2(F)F
- Activity (Pyruvate kinase PKM [32]): Active

SMILES: CN1CC[C@@H](C(=O)N(Cc2ccccc2)c2ccc([As](O)O)cc2)C1
- pIC50 (Pyruvate kinase PKM [1]): 6.55
- pIC50 (Pyruvate kinase PKM [2]): 5.75

SMILES: O=C(CCCC[C@H]1SC[C@H]2NC(=O)N[C@H]21)NCCOCCOCCOCCOCC(=O)Nc1ccc([As]2SCCS2)cc1
- Activity (Pyruvate kinase PKM [33]): inactive

SMILES: CCN1CCC(CN(C(=O)[C@H]2CCN(Cc3ccccc3)C2)c2ccc([As](O)O)cc2)CC1
- pIC50 (Pyruvate kinase PKM [1]): 6.17
- pIC50 (Pyruvate kinase PKM [2]): 5.67

SMILES: CC(C)=CC[C@@H](O)C1=CC(=O)c2c(O)ccc(O)c2C1=O [SHIKONIN]
- pIC50 (Pyruvate kinase PKM [1]): 5.59
- pIC50 (Pyruvate kinase PKM [2]): < 5.00
- pIC50 (Pyruvate kinase PKM [34]): 5.82
- pIC50 (PA-1 [3]): 6.04
- pIC50 (A2780): 6.41
- pIC50 (SK-OV-3 [4]): 5.46
- Activity (Pyruvate kinase PKM [7]): inactive
- Activity (Pyruvate kinase PKM [8]): inactive
- Activity (Pyruvate kinase PKM [30]): Active
- Activity (Pyruvate kinase PKM [31]): Active
- pIC50 (Pyruvate kinase PKM [14]): 6.52
- pIC50 (Pyruvate kinase PKM [15]): 6.42
- pIC50 (Pyruvate kinase PKM [16]): 6.49

SMILES: CCN1CCC(CN(C(=O)[C@@H]2CCN(Cc3ccccc3)C2)c2ccc([As](O)O)cc2)CC1
- pIC50 (Pyruvate kinase PKM [1]): 6.91
- pIC50 (Pyruvate kinase PKM [2]): 6.60
- pIC50 (PA-1 [3]): < 5.00
- pIC50 (A2780): < 5.00
- pIC50 (SK-OV-3 [4]): < 5.00
- Activity (Pyruvate kinase PKM [30]): Active
- Activity (Pyruvate kinase PKM [31]): Active

SMILES: O=C([C@@H]1CCN(Cc2ccccc2)C1)N(Cc1ccccc1)c1ccc([As](O)O)cc1
- pIC50 (Pyruvate kinase PKM [1]): 6.49
- pIC50 (Pyruvate kinase PKM [2]): 5.83

SMILES: O=C(CCCC[C@H]1SC[C@H]2NC(=O)N[C@H]21)NCCOCCOCCOCCOCC(=O)Nc1ccc([As](O)O)cc1
- pIC50 (Pyruvate kinase PKM [1]): 6.64
- pIC50 (Pyruvate kinase PKM [2]): 5.99
- Activity (Pyruvate kinase PKM [33]): Active

SMILES: O=C(CCCC[C@H]1SC[C@H]2NC(=O)N[C@H]21)NCCOCCOCCOCCN1CCC(CN(C(=O)[C@@H]2CCN(Cc3ccccc3)C2)c2ccc([As](O)O)cc2)CC1
- Activity (Pyruvate kinase PKM [29]): inactive
- Activity (Pyruvate kinase PKM [35]): Active

Reference: ChEMBL document CHEMBL5380786, “Selective Covalent Targeting of Pyruvate Kinase M2 Using Arsenous Warheads” (J Med Chem, 2023)
